Source: publication PMC5218480 (PLoS ONE, 2017)

System: MV-4-11 cells
Experiment: Gene expression microarray analysis (Affymetrix PrimeView) and GSEA
Format: cell-based, human
Parameters: RFU PODN (11730768_x_at) / Fold change /veh PODN (11730768_x_at) / RFU LINC00158 (11744669_a_at) / Fold change /veh LINC00158 (11744669_a_at) / RFU DUSP10 (11751237_a_at) / Fold change /veh DUSP10 (11751237_a_at) / RFU ID3 (11757404_x_at) / Fold change /veh ID3 (11757404_x_at) / RFU PLEKHG5 (11737974_s_at) / Fold change /veh PLEKHG5 (11737974_s_at) / RFU LRRC4B (11730491_at) / Fold change /veh LRRC4B (11730491_at) / RFU GIMAP4 (11747438_a_at) / Fold change /veh GIMAP4 (11747438_a_at) / RFU KRT8 (11758183_x_at) / Fold change /veh KRT8 (11758183_x_at) / RFU CNN1 (11734310_a_at) / Fold change /veh CNN1 (11734310_a_at) / RFU VPS37D (11726825_at) / Fold change /veh VPS37D (11726825_at) / RFU C10orf10 (11716522_x_at) / Fold change /veh C10orf10 (11716522_x_at) / RFU KIR2DL2 /// KIR2DL4 /// KIR2DL5A /// KIR2DL5B /// KIR2DS1 /// KIR2DS2 /// KIR2DS3 /// KIR2DS4 /// KIR3DL3 /// KIR3DL3 /// KIR3DS1 (11738374_at) / Fold change /veh KIR2DL2 /// KIR2DL4 /// KIR2DL5A /// KIR2DL5B /// KIR2DS1 /// KIR2DS2 /// KIR2DS3 /// KIR2DS4 /// KIR3DL3 /// KIR3DL3 /// KIR3DS1 (11738374_at) / RFU C1QL1 (11718748_at) / Fold change /veh C1QL1 (11718748_at) / RFU TMPRSS4 (11747572_a_at) / Fold change /veh TMPRSS4 (11747572_a_at) / RFU HAMP (11756126_x_at) / Fold change /veh HAMP (11756126_x_at) / RFU RNFT2 (11725882_a_at) / Fold change /veh RNFT2 (11725882_a_at) / RFU NR4A2 (11747474_a_at) / Fold change /veh NR4A2 (11747474_a_at) / RFU ABCC12 (11746883_a_at) / Fold change /veh ABCC12 (11746883_a_at) / RFU TMEM136 (11760407_x_at) / Fold change /veh TMEM136 (11760407_x_at) / RFU CLDN22 /// WWC2 (11732394_at) / Fold change /veh CLDN22 /// WWC2 (11732394_at) / RFU HLA-DPB1 (11760878_x_at) / Fold change /veh HLA-DPB1 (11760878_x_at) / RFU SPINT1 (11716480_a_at) / Fold change /veh SPINT1 (11716480_a_at) / RFU GAP43 (11754022_s_at) / Fold change /veh GAP43 (11754022_s_at) / RFU A4GNT (11735810_at) / Fold change /veh A4GNT (11735810_at) / RFU PRB3 (11715151_x_at) / Fold change /veh PRB3 (11715151_x_at) / RFU TUBB4B (11761932_at) / Fold change /veh TUBB4B (11761932_at) / RFU CAPN14 (11732068_a_at) / Fold change /veh CAPN14 (11732068_a_at) / RFU TMCC2 (11721928_a_at) / Fold change /veh TMCC2 (11721928_a_at) / RFU IRGQ (11745062_a_at) / Fold change /veh IRGQ (11745062_a_at) / RFU FAM174B (11720279_a_at) / Fold change /veh FAM174B (11720279_a_at) / RFU TMPRSS4 (11748680_a_at) / Fold change /veh TMPRSS4 (11748680_a_at) / RFU FAM212B (11763350_a_at) / Fold change /veh FAM212B (11763350_a_at) / RFU PLEKHG5 (11743358_a_at) / Fold change /veh PLEKHG5 (11743358_a_at) / RFU ZSCAN30 (11745921_a_at) / Fold change /veh ZSCAN30 (11745921_a_at) / RFU CMKLR1 (11741424_a_at) / Fold change /veh CMKLR1 (11741424_a_at) / RFU LOC101060620 /// MAPK8IP1 (11723275_at) / Fold change /veh LOC101060620 /// MAPK8IP1 (11723275_at) / RFU SPTSSB (11747773_x_at) / Fold change /veh SPTSSB (11747773_x_at) / RFU PRSS12 (11739890_at) / Fold change /veh PRSS12 (11739890_at) / RFU BIN1 (11741810_x_at) / Fold change /veh BIN1 (11741810_x_at) / RFU WNT11 (11732464_a_at) / Fold change /veh WNT11 (11732464_a_at) / RFU C10orf10 (11716521_a_at) / Fold change /veh C10orf10 (11716521_a_at) / RFU C5orf56 (11738089_at) / Fold change /veh C5orf56 (11738089_at) / RFU CYB561 (11721691_x_at) / Fold change /veh CYB561 (11721691_x_at) / RFU ANKRD19P (11752326_a_at) / Fold change /veh ANKRD19P (11752326_a_at) / RFU OR2T12 /// OR2T33 /// OR2T8 (11738714_s_at) / Fold change /veh OR2T12 /// OR2T33 /// OR2T8 (11738714_s_at) / RFU VCAN (11748164_a_at) / Fold change /veh VCAN (11748164_a_at) / RFU JSRP1 (11732532_at) / Fold change /veh JSRP1 (11732532_at) / RFU KRTAP10-11 (11738290_x_at) / Fold change /veh KRTAP10-11 (11738290_x_at) / RFU MYO3A (11730013_a_at) / Fold change /veh MYO3A (11730013_a_at) / RFU EBF3 (11725865_a_at) / Fold change /veh EBF3 (11725865_a_at) / RFU CAMK2N1 (11719241_x_at) / Fold change /veh CAMK2N1 (11719241_x_at) / RFU C5orf56 (11738088_a_at) / Fold change /veh C5orf56 (11738088_a_at) / RFU OLFML3 (11715873_a_at) / Fold change /veh OLFML3 (11715873_a_at) / RFU LOC100653217 /// NTM (11731650_a_at) / Fold change /veh LOC100653217 /// NTM (11731650_a_at) / RFU MAPK11 (11762145_a_at) / Fold change /veh MAPK11 (11762145_a_at) / RFU FIZ1 (11724087_x_at) / Fold change /veh FIZ1 (11724087_x_at) / RFU OASL (11726364_x_at) / Fold change /veh OASL (11726364_x_at) / RFU SOX15 (11748057_x_at) / Fold change /veh SOX15 (11748057_x_at) / RFU CD79A (11719716_a_at) / Fold change /veh CD79A (11719716_a_at) / RFU HIST1H1D (11736915_at) / Fold change /veh HIST1H1D (11736915_at) / RFU CASKIN2 (11723855_a_at) / Fold change /veh CASKIN2 (11723855_a_at) / RFU LOC730098 (11760151_x_at) / Fold change /veh LOC730098 (11760151_x_at) / RFU OR4N2 (11742367_at) / Fold change /veh OR4N2 (11742367_at) / RFU PRRT2 (11749266_a_at) / Fold change /veh PRRT2 (11749266_a_at) / RFU SNX32 (11753110_a_at) / Fold change /veh SNX32 (11753110_a_at) / RFU CDHR5 (11726645_a_at) / Fold change /veh CDHR5 (11726645_a_at) / RFU RCAN1 (11760418_a_at) / Fold change /veh RCAN1 (11760418_a_at) / RFU FAM167A (11723789_a_at) / Fold change /veh FAM167A (11723789_a_at) / RFU FAM26E (11764081_at) / Fold change /veh FAM26E (11764081_at) / RFU ISYNA1 (11749810_s_at) / Fold change /veh ISYNA1 (11749810_s_at) / RFU ACY1 (11761880_at) / Fold change /veh ACY1 (11761880_at) / RFU 11764098_at / Fold change /veh 11764098_at / RFU SAMD14 (11745864_x_at) / Fold change /veh SAMD14 (11745864_x_at) / RFU NPB (11741838_a_at) / Fold change /veh NPB (11741838_a_at) / RFU TMPRSS6 (11731388_a_at) / Fold change /veh TMPRSS6 (11731388_a_at) / RFU KRTAP10-2 (11738614_at) / Fold change /veh KRTAP10-2 (11738614_at) / RFU ARHGAP8 /// PRR5-ARHGAP8 (11727945_x_at) / Fold change /veh ARHGAP8 /// PRR5-ARHGAP8 (11727945_x_at) / RFU KRTAP5-7 /// NADSYN1 (11734609_at) / Fold change /veh KRTAP5-7 /// NADSYN1 (11734609_at) / RFU RASL12 (11751679_a_at) / Fold change /veh RASL12 (11751679_a_at) / RFU CDKN2B (11736163_a_at) / Fold change /veh CDKN2B (11736163_a_at) / RFU PRF1 (11729649_at) / Fold change /veh PRF1 (11729649_at) / RFU, ZNF638 /// ZNF638-IT1 / Fold change vs veh, ZNF638 /// ZNF638-IT1 / RFU, PANK3 / Fold change vs veh, PANK3 / RFU, SH3YL1 / Fold change vs veh, SH3YL1 / RFU, ZEB2 / Fold change vs veh, ZEB2 / RFU, NRIP1 / Fold change vs veh, NRIP1 / RFU, PTTG1IP / Fold change vs veh, PTTG1IP / RFU, CAPN2 / Fold change vs veh, CAPN2 / RFU, MED14 / Fold change vs veh, MED14 / RFU, SNORA58 / Fold change vs veh, SNORA58 / RFU, C1orf63 / Fold change vs veh, C1orf63 / RFU, LRRFIP1 / Fold change vs veh, LRRFIP1 / RFU, NDUFAF7 / Fold change vs veh, NDUFAF7 / RFU, SLC12A2 / Fold change vs veh, SLC12A2 / RFU, IBTK / Fold change vs veh, IBTK / RFU, ESF1 / Fold change vs veh, ESF1 / Fold change vs veh, TMEM50B / RFU, TAOK1 / Fold change vs veh, TAOK1 / RFU, ACBD3 / Fold change vs veh, ACBD3 / RFU, TMA16 / Fold change vs veh, TMA16 / RFU, RWDD3 / Fold change vs veh, RWDD3 / RFU, BCAT1 / Fold change vs veh, BCAT1 / RFU, EDEM3 / Fold change vs veh, EDEM3 / RFU, TMEM33 / Fold change vs veh, TMEM33 / RFU, WDR75 / Fold change vs veh, WDR75 / RFU, AHCTF1 / Fold change vs veh, AHCTF1 / RFU, TFRC / Fold change vs veh, TFRC / RFU, ZDHHC17 / Fold change vs veh, ZDHHC17 / RFU, NOM1 / Fold change vs veh, NOM1 / RFU, ARL8B / Fold change vs veh, ARL8B / RFU, ZBTB11 / Fold change vs veh, ZBTB11 / RFU, TAMM41 / Fold change vs veh, TAMM41 / RFU, KIAA1704 /// LOC100996395 / Fold change vs veh, KIAA1704 /// LOC100996395 / RFU, ING1 / Fold change vs veh, ING1 / RFU, TRMT61B / Fold change vs veh, TRMT61B / RFU, FUBP3 / Fold change vs veh, FUBP3 / RFU, TP53 / Fold change vs veh, TP53 / RFU, TNKS2 / Fold change vs veh, TNKS2 / RFU, ZFP14 / Fold change vs veh, ZFP14 / RFU, ACTR2 / Fold change vs veh, ACTR2 / RFU, PPP3R1 / Fold change vs veh, PPP3R1 / RFU, PIK3R1 / Fold change vs veh, PIK3R1 / RFU, HNRNPA1 / Fold change vs veh, HNRNPA1 / RFU, RNF170 / Fold change vs veh, RNF170 / RFU, ZNF28 / Fold change vs veh, ZNF28 / RFU, RNGTT / Fold change vs veh, RNGTT / RFU, OGT / Fold change vs veh, OGT / RFU, BRD1 / Fold change vs veh, BRD1 / RFU, MARS / Fold change vs veh, MARS / RFU, ZNF655 / Fold change vs veh, ZNF655 / RFU, FAHD1 / Fold change vs veh, FAHD1 / RFU, BDP1 / Fold change vs veh, BDP1 / RFU, LRRCC1 / Fold change vs veh, LRRCC1 / RFU, ARID1A / Fold change vs veh, ARID1A / RFU, ZNF146 / Fold change vs veh, ZNF146 / RFU, ZNF330 / Fold change vs veh, ZNF330 / RFU, GPN3 / Fold change vs veh, GPN3 / RFU, C9orf123 / Fold change vs veh, C9orf123 / RFU, N4BP2L2 / Fold change vs veh, N4BP2L2 / RFU, ARFIP1 / Fold change vs veh, ARFIP1 / RFU, FAM179B / Fold change vs veh, FAM179B / RFU, BCL10 / Fold change vs veh, BCL10 / RFU, UHRF1BP1L / Fold change vs veh, UHRF1BP1L / RFU, BET1 / Fold change vs veh, BET1 / RFU, CNOT2 / Fold change vs veh, CNOT2 / RFU, ZNF268 / Fold change vs veh, ZNF268 / Fold change vs veh, ZNF507 / RFU, DGCR2 / Fold change vs veh, DGCR2 / RFU, WDSUB1 / Fold change vs veh, WDSUB1 / Fold change vs veh, HSP90B1 /// MIR3652 / RFU, ADSS / Fold change vs veh, ADSS / RFU, GK / Fold change vs veh, GK / RFU, ZNF148 / Fold change vs veh, ZNF148 / RFU, TAF9 / Fold change vs veh, TAF9 / RFU, SLC1A5 / Fold change vs veh, SLC1A5 / RFU, SLMO2 / Fold change vs veh, SLMO2 / RFU, ABCC4 / Fold change vs veh, ABCC4 / RFU, LOC101060439 /// RAP1B / Fold change vs veh, LOC101060439 /// RAP1B / RFU, RFX7 / Fold change vs veh, RFX7 / RFU, GTPBP10 / Fold change vs veh, GTPBP10 / RFU, CNEP1R1 / Fold change vs veh, CNEP1R1 / RFU, BIVM-ERCC5 /// ERCC5 / Fold change vs veh, BIVM-ERCC5 /// ERCC5 / RFU, ILF3 / Fold change vs veh, ILF3 / RFU 11762660_at / Fold change /veh 11762660_at / RFU VCAN (11757783_s_at) / Fold change /veh VCAN (11757783_s_at) / RFU DDX43 (11728927_at) / Fold change /veh DDX43 (11728927_at) / RFU KRT8 (11758188_x_at) / Fold change /veh KRT8 (11758188_x_at) / RFU NKD1 (11759106_at) / Fold change /veh NKD1 (11759106_at) / RFU SRD5A1 (11742802_a_at) / Fold change /veh SRD5A1 (11742802_a_at) / RFU TPSAB1 /// TPSB2 (11721975_s_at) / Fold change /veh TPSAB1 /// TPSB2 (11721975_s_at) / RFU GSTM3 (11746129_a_at) / Fold change /veh GSTM3 (11746129_a_at) / RFU IL23R (11737362_x_at) / Fold change /veh IL23R (11737362_x_at) / RFU TMEM51 (11727254_a_at) / Fold change /veh TMEM51 (11727254_a_at) / RFU PIWIL2 (11732686_x_at) / Fold change /veh PIWIL2 (11732686_x_at) / RFU ORM1 (11744905_x_at) / Fold change /veh ORM1 (11744905_x_at) / RFU CCDC152 (11743942_at) / Fold change /veh CCDC152 (11743942_at) / RFU ECM1 (11717891_a_at) / Fold change /veh ECM1 (11717891_a_at) / RFU IL23R (11748794_a_at) / Fold change /veh IL23R (11748794_a_at) / RFU TNFAIP8L3 (11732012_x_at) / Fold change /veh TNFAIP8L3 (11732012_x_at) / RFU MBOAT4 (11741988_at) / Fold change /veh MBOAT4 (11741988_at) / RFU 11764193_at / Fold change /veh 11764193_at / RFU TMEM53 (11763286_at) / Fold change /veh TMEM53 (11763286_at) / RFU MAGEB2 (11727129_at) / Fold change /veh MAGEB2 (11727129_at) / RFU TMEM200A (11744735_a_at) / Fold change /veh TMEM200A (11744735_a_at) / RFU CCDC152 (11751479_a_at) / Fold change /veh CCDC152 (11751479_a_at) / RFU FAM211A (11726209_a_at) / Fold change /veh FAM211A (11726209_a_at) / RFU RGS16 (11746705_a_at) / Fold change /veh RGS16 (11746705_a_at) / RFU VCAN (11755009_s_at) / Fold change /veh VCAN (11755009_s_at) / RFU RHOB (11743442_s_at) / Fold change /veh RHOB (11743442_s_at) / RFU RGS16 (11720943_a_at) / Fold change /veh RGS16 (11720943_a_at) / RFU RGS16 (11720944_at) / Fold change /veh RGS16 (11720944_at) / RFU, VPS4B / Fold change vs veh, VPS4B / RFU, CREB1 / Fold change vs veh, CREB1 / RFU, DNAJC13 / Fold change vs veh, DNAJC13 / RFU, GNAQ / Fold change vs veh, GNAQ / RFU, CDK5R1 / Fold change vs veh, CDK5R1 / RFU, ZRANB3 / Fold change vs veh, ZRANB3 / RFU, CUL4A / Fold change vs veh, CUL4A / RFU, CCNY / Fold change vs veh, CCNY / RFU, UFL1 / Fold change vs veh, UFL1 / RFU, COG3 / Fold change vs veh, COG3 / RFU, DIAPH2 / Fold change vs veh, DIAPH2 / RFU, SKA2 / Fold change vs veh, SKA2 / RFU, AFF3 / Fold change vs veh, AFF3 / RFU, LMF1 / Fold change vs veh, LMF1 / RFU, IPO11 / Fold change vs veh, IPO11 / RFU, DFFB / Fold change vs veh, DFFB / RFU, FOXP1 / Fold change vs veh, FOXP1 / RFU, CARD8 / Fold change vs veh, CARD8 / RFU, STRN3 / Fold change vs veh, STRN3 / RFU, ADK / Fold change vs veh, ADK / RFU, RASSF2 / Fold change vs veh, RASSF2 / RFU, WIPF1 / Fold change vs veh, WIPF1 / RFU, LARP1B / Fold change vs veh, LARP1B / RFU, RASA1 / Fold change vs veh, RASA1 / RFU, RB1 / Fold change vs veh, RB1 / RFU, PPFIA1 / Fold change vs veh, PPFIA1 / RFU, MAT2A / Fold change vs veh, MAT2A / RFU, CCT5 / Fold change vs veh, CCT5 / RFU, WDR92 / Fold change vs veh, WDR92 / RFU, CUX1 / Fold change vs veh, CUX1 / RFU, TTC7A / Fold change vs veh, TTC7A / RFU, TMEM135 / Fold change vs veh, TMEM135 / RFU, DEPTOR / Fold change vs veh, DEPTOR / RFU, CPM / Fold change vs veh, CPM / RFU, DNAJB6 / Fold change vs veh, DNAJB6 / RFU, CACNA2D3 / Fold change vs veh, CACNA2D3 / RFU, DTX4 / Fold change vs veh, DTX4 / RFU, TFCP2 / Fold change vs veh, TFCP2 / RFU, GMCL1 /// GMCL1P1 / Fold change vs veh, GMCL1 /// GMCL1P1 / RFU, AEBP2 / Fold change vs veh, AEBP2 / RFU, SNHG1 /// SNORD22 /// SNORD25 /// SNORD26 /// SNORD27 /// SNORD28 /// SNORD29 /// SNORD31 / Fold change vs veh, SNHG1 /// SNORD22 /// SNORD25 /// SNORD26 /// SNORD27 /// SNORD28 /// SNORD29 /// SNORD31 / Fold change (Aza/veh), C12orf56 (ProbeSet 11735607_a_at) / Fold change (ACY-1035/veh), C12orf56 (ProbeSet 11735607_a_at) / Fold change (Aza/veh), FGFR1OP (ProbeSet 11751329_s_at) / Fold change (ACY-1035/veh), FGFR1OP (ProbeSet 11751329_s_at) / Fold change (Aza/veh), VPS36 (ProbeSet 11739960_a_at) / Fold change (ACY-1035/veh), VPS36 (ProbeSet 11739960_a_at) / RFU SYPL1 (11715823_x_at) / Fold change /veh SYPL1 (11715823_x_at) / RFU IGFBP7 (11715501_s_at) / Fold change /veh IGFBP7 (11715501_s_at) / RFU REEP3 (11722064_at) / Fold change /veh REEP3 (11722064_at) / RFU IGLL1 (11728026_x_at) / Fold change /veh IGLL1 (11728026_x_at): dose or concentration left out as unconfirmed
Conditions: ProbeSet 11725787_a_at; LIST B

## Nc1ncn([C@@H]2O[C@H](CO)[C@@H](O)[C@H]2O)c(=O)n1 [azacitidine]
  RFU, TMA16: 152.00 RFU
